Experimental data from paper PMC3425516 (PLoS ONE, 2012).

Columns and labels:
recombinant human HDAC8 = recombinant human HDAC8 (Homo sapiens, UniProt Q9BY41); assay: biochemical
From the text: (§3) The HDACs in vitro activities of recombinant human HDAC 1, 2, 4, 6 and 8 (BPS Biosciences) were detected by fluorigenic release of 7-amino-4-methylcoumarin from substrate upon deacetylase enzymatic activity.

HCT116 cells = assay: Sulforhodamine B cell growth assay; type: cell-based; conditions: Homo sapiens, HCT-116; HCT116, SRB assay, 48 h, mean±S.E.M.; read-out: GI50
Method: (§1) HCT116, MDAMB231 and NCI-ADR cells were seeded in 96-well plates in medium with 5% fetal bovine serum overnight. Cells were fixed with 10% trichloroacetic representing cell population at the time of drug treatment (T 0). […] Excess Sulforhodamine B was washed away by 1% acetic acid and dye-containing cells were lysed with 10 mmol/L Trizma base. […] By measuring time zero (T 0), control growth (C), and cell growth in the presence of the drug (Tx), the percentage growth was calculated. Percentage growth inhibition was calculated as 100-[(Tx–T 0)/(C-T 0)]×100.

NCI-ADR cells = assay: Sulforhodamine B cell growth assay; type: cell-based; conditions: Homo sapiens, NCI/ADR-RES, SRB assay, 48 h
Method: as §1

MDAMB231 cells = assay: Sulforhodamine B cell growth assay; type: cell-based; conditions: Homo sapiens, MDA-MB-231; MDAMB231, SRB assay, 48 h
Method: as §1

recombinant human HDAC4 = recombinant human HDAC4 (Homo sapiens, UniProt P56524); assay: biochemical
From the text: as §3

[1] = tested on: human HCT116 colorectal cancer xenograft; assay: HCT116 xenograft, tumor growth delay to 1,200 mm^3 endpoint; type: in vivo, nude mice; conditions: for No. of CR (complete regression): 8 mice per group; for %TGD (tumor growth delay): [(T-C)/C]×100; for T-C: median TTE treated versus control
Method: The human HCT116 colorectal adenocarcinoma cells used for implantation were harvested during log phase growth and resuspended in phosphate-buffered saline at 5×10^7 cells/mL. Each mouse was injected s.c. in the right flank with 1.0×10^7 cells (0.2 mL cell suspension). Tumors were monitored twice weekly and then daily as their volumes approached 1,200 mm^3. Tumor size, in mm^3, was calculated from: where w = width and l = length in mm of the tumor. Tumor volume = (w^2×l)/2.
The logrank test was used to determine the statistical significance of the difference between the TTE values of two groups, except any NTR deaths. […] The two-tailed statistical analyses were conducted at P = 0.05. Kaplan-Meier plots show the percentage of animals remaining in the study versus time. The Kaplan-Meier plots use the same data set as the logrank test.
Once a tumor was palpable with the size of approximately 55 mm^3, mice were randomized into vehicle control and treatment groups (8 mice per group). Control mice received the vehicle (0.5% carboxymethyl cellulose +0.1% Tween 80). Tumors in all 3 groups were allowed to reach an endpoint volume of 1,200 mm^3.

NCI-H460 = assay: NCI-60 cell lines screening; type: cell-based; conditions: Homo sapiens, NCI-H460, Non-Small Cell Lung Cancer panel
Method: (§2) The NCI-60 cancer cell lines screening was conducted by the NCI’s Developmental Therapeutics Program (DTP; http://www.dtp.nci.nih.gov/branches/btb/ivclsp.html).

HL-60 (TB) = assay: NCI-60 cell lines screening; type: cell-based; conditions: Leukemia panel
Method: as §2

Chain of recombinant human HDAC8 (Q9BY41 whole entry): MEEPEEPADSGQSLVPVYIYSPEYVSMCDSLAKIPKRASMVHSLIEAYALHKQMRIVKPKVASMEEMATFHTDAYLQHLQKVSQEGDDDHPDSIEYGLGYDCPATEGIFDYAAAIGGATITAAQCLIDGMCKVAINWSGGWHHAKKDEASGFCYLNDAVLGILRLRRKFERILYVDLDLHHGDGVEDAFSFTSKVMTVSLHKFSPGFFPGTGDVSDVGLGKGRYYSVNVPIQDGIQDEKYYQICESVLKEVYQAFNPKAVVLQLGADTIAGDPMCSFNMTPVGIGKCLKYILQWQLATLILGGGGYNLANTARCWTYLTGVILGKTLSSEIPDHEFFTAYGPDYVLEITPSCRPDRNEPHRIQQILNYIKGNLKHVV
Chain of recombinant human HDAC4 (P56524 whole entry): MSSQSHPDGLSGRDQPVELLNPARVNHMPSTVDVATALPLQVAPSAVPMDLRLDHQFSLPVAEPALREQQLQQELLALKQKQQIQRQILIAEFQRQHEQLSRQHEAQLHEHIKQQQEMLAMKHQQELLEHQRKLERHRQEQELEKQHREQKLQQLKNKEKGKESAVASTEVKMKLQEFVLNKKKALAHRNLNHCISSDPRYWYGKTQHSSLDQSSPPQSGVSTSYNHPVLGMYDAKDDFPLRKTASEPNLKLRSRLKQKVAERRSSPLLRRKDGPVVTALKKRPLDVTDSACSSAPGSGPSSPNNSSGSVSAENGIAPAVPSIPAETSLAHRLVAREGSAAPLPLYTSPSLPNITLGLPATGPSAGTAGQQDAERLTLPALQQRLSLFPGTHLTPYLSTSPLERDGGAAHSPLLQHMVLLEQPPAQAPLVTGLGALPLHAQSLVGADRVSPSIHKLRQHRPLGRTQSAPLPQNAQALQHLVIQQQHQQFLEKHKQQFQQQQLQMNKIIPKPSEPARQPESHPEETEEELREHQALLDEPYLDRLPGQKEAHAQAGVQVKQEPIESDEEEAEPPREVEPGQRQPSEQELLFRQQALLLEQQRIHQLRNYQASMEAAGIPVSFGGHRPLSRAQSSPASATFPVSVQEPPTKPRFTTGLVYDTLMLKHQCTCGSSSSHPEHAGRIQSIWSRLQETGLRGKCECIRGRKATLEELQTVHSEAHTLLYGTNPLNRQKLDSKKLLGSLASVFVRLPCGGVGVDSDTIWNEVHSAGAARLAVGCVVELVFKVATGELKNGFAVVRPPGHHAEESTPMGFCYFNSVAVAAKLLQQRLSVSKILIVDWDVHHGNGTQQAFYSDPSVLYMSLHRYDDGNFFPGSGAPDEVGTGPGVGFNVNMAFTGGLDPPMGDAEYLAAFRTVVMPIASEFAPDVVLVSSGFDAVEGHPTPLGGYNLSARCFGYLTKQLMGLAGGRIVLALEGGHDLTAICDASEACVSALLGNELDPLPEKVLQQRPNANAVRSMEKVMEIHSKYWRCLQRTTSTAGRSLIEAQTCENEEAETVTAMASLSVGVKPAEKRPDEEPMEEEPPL

## O=C(C=Cc1ccc2c(c1)CCN2S(=O)(=O)c1ccccc1)NO [MPT0E028, 3-(1-benzenesulfonyl-2,3-dihydro-1H-indol-5-yl)-N-hydroxy-acrylamide]
Recombinant human HDAC8
  IC50: 2530 ± 315 nM
HCT116 cells
  GI50: 90 ± 4 nM
NCI-ADR cells
  GI50: 140 ± 20 nM
MDAMB231 cells
  GI50: 190 ± 40 nM
Recombinant human HDAC4
  IC50: > 10000 nM
[1]; 50 mg/kg po qd
  No. of CR (complete regression): 0
  %TGD (tumor growth delay): 0%
  T-C: 0 days
[1]; 100 mg/kg po qd to endpoint 1200 mm^3
  Median TTE: 19.2 days
[1]; 100 mg/kg po qd
  No. of CR (complete regression): 1
  %TGD (tumor growth delay): 16%
  T-C: 2.6 days
[1]; 200 mg/kg po qd to endpoint 1200 mm^3
  Median TTE: 36.9 days
[1]; 200 mg/kg po qd
  No. of CR (complete regression): 3
  %TGD (tumor growth delay): 122%
  T-C: 20 days
NCI-H460
  GI50: 144 nM
NCI-H460; read-out: LC50 (the source's name)
  CC50: 21600 nM
HL-60 (TB); Homo sapiens
  GI50: 439 nM
HL-60 (TB); Homo sapiens, read-out: LC50 (the source's name)
  CC50: > 100000 nM
HL-60 (TB)
  TGI: >100000 nM
